Consider 16 compounds from patent publication US11236047B2 (ASTEX THERAPEUTICS LIMITED, priority 2017, dated 2022).

Like-named read-outs stand apart in the source and are kept apart here.

In series [1] the test system is SJSA-1 cells (p53 wild-type, MDM2 amplified osteosarcoma). The experiment in a line: Protocol A: SJSA-1 growth inhibition (sulphorhodamine B).
The next series deals with MDM2-p53 interaction (Homo sapiens (Human), UniProt Q00987). The note with it: for inhibition at 0.001 µM: read-out: MDM2 % inhibition @0.0010.
For another series, the system named is SJSA-1 cells. Nature of the series: Protocol B: SJSA-1 CellTiter-Glo luminescent cell viability assay.
For series [2], the system named is SN40R2 cells (p53 mutated, MDM2 amplified osteosarcoma). The experiment in a line: Protocol A: SN40R2 growth inhibition (sulphorhodamine B). The note with it: for inhibition at 50 µM: read-out: SN40R2 % inhibition at 50.
In another series the test system is SN40R2 cells. Nature of the series: Protocol B: SN40R2 CellTiter-Glo luminescent cell viability assay. The note with it: read-out: SN40R2 % inhibition at 10, Protocol B, SN40R2, at 10 μM.
Series [3] in a line: Repeat dose pharmacokinetics in monkeys. The note with it: monkey, in vivo, sc, 3 mg/kg subcutaneously 3x weekly, day 15.
A further series can be described thus: in vivo. The conditions noted are these: monkey, 10 mg/kg.
Where [4] appears, read: read-out: SJSA-1 IC50 (μM) (Protocol A), SJSA-1, Protocol A.
Setting [5] is: Homo sapiens, SJSA-1, read-out: SJSA-1 IC50 (μM) (Protocol A), SJSA-1, Protocol A.
Setting [6] is: read-out: SN40R2 IC50 (μM) (Protocol A).
Setting [7] is: read-out: SJSA1 IC50, Protocol B, SJSA-1.
Where [8] appears, read: Homo sapiens, SJSA-1, read-out: SJSA-1 IC50 (μM), Protocol A, SJSA-1.

Chain of MDM2-p53 interaction (Q00987 whole entry): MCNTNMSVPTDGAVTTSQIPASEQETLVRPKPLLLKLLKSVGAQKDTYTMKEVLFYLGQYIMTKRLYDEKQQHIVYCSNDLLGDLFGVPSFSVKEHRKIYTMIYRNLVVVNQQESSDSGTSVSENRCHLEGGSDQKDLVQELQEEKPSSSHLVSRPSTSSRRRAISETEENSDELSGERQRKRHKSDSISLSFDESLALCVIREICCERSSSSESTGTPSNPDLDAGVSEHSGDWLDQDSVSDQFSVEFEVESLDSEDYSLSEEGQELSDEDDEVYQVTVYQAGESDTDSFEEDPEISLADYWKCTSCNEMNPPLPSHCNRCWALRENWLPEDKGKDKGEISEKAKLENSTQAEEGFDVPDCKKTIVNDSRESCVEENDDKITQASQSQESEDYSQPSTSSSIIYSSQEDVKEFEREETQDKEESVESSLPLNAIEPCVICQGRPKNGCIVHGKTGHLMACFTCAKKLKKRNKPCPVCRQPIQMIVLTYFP

The term IC50 denotes the concentration that inhibits the measured activity by half. For the compound `CO[C@]1(c2ccc(Cl)cc2)c2ccc(C(C)(O)CN3CCNC3=O)cc2C(=O)N1Cc1ccc(Cl)cn1` (single isomer, unassigned) [Example 157], the concentration for half-maximal inhibition (IC50) in series [1] (setting [4]) stood at 6.4 µM. Moreover, the “MDM2 % at stated concentration” value on MDM2-p53 interaction (at 0.30 μM) turned out to be 39%@0.30.

Take `CO[C@]1(c2ccc(Cl)cc2)c2ccc(C(C)(O)CN3CCNC3=O)cc2C(=O)N1Cc1ccc(Cl)cn1` (single isomer, unassigned) [Example 158]: the IC50 in series [1] (setting [4]) stood at 1.2 µM. Besides, at MDM2-p53 interaction (at 0.10 μM), the “MDM2 % at stated concentration” value is 57%@0.10.

On to `CO[C@]1(c2ccc(Cl)cc2)c2c(F)cc(C(C)(O)C3CCN(C(=O)CO)CC3)cc2C(=O)N1Cc1ccc(Cl)cn1` (single isomer, unassigned) [Example 296], for which the 50% inhibitory concentration (IC50) in series [1] (setting [5]) stood at 0.11 µM; in the series on SJSA-1 cells (Homo sapiens, SJSA-1, read-out: SJSA1 IC50 (μM) (Protocol B), SJSA-1, Protocol B) it was 0.16 µM; in series [2] (setting [6]) it was 32 µM. On MDM2-p53 interaction, the “MDM2 % at stated concentration” value was found to be 62%@0.0010.

Take `CO[C@]1(c2ccc(Cl)cc2)c2ccc(C(C)(O)CN3CCOCC3=O)cc2C(=O)N1Cc1ccc(Cl)cn1` (single isomer, unassigned) [Example 327]: the 50% inhibitory concentration (IC50) in series [1] (setting [4]) was 9.3 µM. Also, the “MDM2 % at stated concentration” value at MDM2-p53 interaction (at 0.30 μM) was 42%@0.30.

Regarding `CO[C@]1(c2ccc(Cl)cc2)c2ccc(C(C)(O)CN3CCOCC3=O)cc2C(=O)N1Cc1ccc(Cl)cn1` (single isomer, unassigned) [Example 328], the IC50 in series [1] (setting [4]) is 2.3 µM. Besides, the “MDM2 % at stated concentration” value on MDM2-p53 interaction (at 0.10 μM) is 42%@0.10.

As to `CO[C@]1(c2ccc(Cl)cc2)c2ccc(C(C)(O)CN3CC(=O)NC3=O)cc2C(=O)N1Cc1ccc(Cl)cn1` (single isomer, unassigned) [Example 329], in series [1] (setting [4]), the concentration for half-maximal inhibition (IC50) came to 3 µM. The “MDM2 % at stated concentration” value on MDM2-p53 interaction (at 0.30 μM) is recorded as 61%@0.30.

With `CO[C@]1(c2ccc(Cl)cc2)c2ccc(C(C)(O)CN3CC(=O)NC3=O)cc2C(=O)N1Cc1ccc(Cl)cn1` (single isomer, unassigned) [Example 330], in series [1] (setting [4]), the IC50 came to 7.1 µM. The “MDM2 % at stated concentration” value at MDM2-p53 interaction (at 0.30 μM) turned out to be 36%@0.30.

Regarding `CC(O)(c1cc(F)c2c(c1)C(=O)N(Cc1ccc(Cl)cn1)[C@@]2(OCC1(C#N)CC1)c1ccc(Cl)cc1)C1CCN(CCO)CC1` (single isomer, unassigned) [Example 420], the values for the IC50 in series [1] (setting [5]) and in series [2] (setting [6]) were 0.49 µM and 17 µM, respectively. Besides, the “MDM2 % at stated concentration” value at MDM2-p53 interaction is 68%@0.0010.

As usually defined, the inhibition is the relative decrease from the control value, in per cent. `CCC(O)(c1cc(F)c2c(c1)C(=O)N(Cc1ccc(C#N)nc1)[C@@]2(O[C@H]1CCOC1)c1ccc(Cl)cc1)c1cn(C)cn1` (single isomer, unassigned) [Example 431]: the IC50 in the series with SJSA-1 cells (setting [7]) came out at 0.16 µM. Besides, the inhibition at 0.001 µM on MDM2-p53 interaction came to 48%. Also, the inhibition at 50 µM in series [2] is 39%. Also, the inhibition at 10 µM in the series on SN40R2 cells is 5%.

Regarding `CN1CCC(C(C)(O)c2cc(F)c3c(c2)C(=O)N(Cc2ncc(Cl)cn2)[C@@]3(OCC2(CO)CC2)c2ccc(Cl)cc2)CC1` (single isomer, unassigned) [Example 554], the inhibition at 0.001 µM on MDM2-p53 interaction turned out to be 74%. Moreover, in series [2], the inhibition at 50 µM was found to be 46%. Besides, the inhibition at 10 µM in the series with SN40R2 cells came out at 11%.

For `Cn1cc(C(O)(c2cc(F)c3c(c2)C(=O)N(Cc2ccc(C#N)cn2)[C@@]3(O[C@H]2CCOC2)c2ccc(Cl)cc2)C(F)(F)F)cn1` (stereo partly drawn) [Example 428, 6-{[(1R)-1-(4-chlorophenyl)-7-fluoro-3-oxo-1-[(3S)-oxolan-3-yloxy]-5-[2,2,2-trifluoro-1-hydroxy-1-(1-methyl-1H-pyrazol-4-yl)ethyl]-2,3-dihydro-1H-isoindol-2-yl]methyl}pyridine-3-carbonitrile], the IC50 in series [1] (setting [8]) worked out at 0.11 µM; in the series with SJSA-1 cells (setting [7]), 0.19 µM; in series [2] (read-out: SN40R2 IC50 (μM)), 22 µM. The inhibition at 0.001 µM on MDM2-p53 interaction stood at 65%.

For the compound `CCC(O)(c1cc(F)c2c(c1)C(=O)N(Cc1ncc(C#N)cn1)[C@@]2(OCCO)c1ccc(Cl)cc1)[C@H]1CC[C@H](O)CC1` (stereo partly drawn) [Example 510, 2-{[(1R)-1-(4-chlorophenyl)-7-fluoro-5-{1-hydroxy-1-[trans-4-hydroxycyclohexyl]propyl}-1-(2-hydroxyethoxy)-3-oxo-2,3-dihydro-1H-isoindol-2-yl]methyl}pyrimidine-5-carbonitrile], the inhibition at 0.001 µM at MDM2-p53 interaction came to 79%. For the same compound, the inhibition at 50 µM in series [2] was 5%. The inhibition at 10 µM with SN40R2 cells was 9%.

On to `CCC(O)(c1cc(F)c2c(c1)C(=O)N(Cc1ccc(C#N)cn1)[C@@]2(OC1CC(O)C1)c1ccc(Cl)cc1)[C@H]1CC[C@H](O)CC1` (stereo partly drawn) [Example 518, 6-{[(1R)-1-(4-chlorophenyl)-7-fluoro-5-{1-hydroxy-1-[trans-4-hydroxycyclohexyl]propyl}-3-oxo-1-[cis-3-hydroxycyclobutoxy]-2,3-dihydro-1H-isoindol-2-yl]methyl}pyridine-3-carbonitrile], for which the half-maximal inhibitory concentration (IC50) was found to be 0.058 µM in series [1] (setting [8]) and 0.065 µM in the series on SJSA-1 cells (setting [7]). In addition, on MDM2-p53 interaction, the inhibition at 0.001 µM came to 79%. Moreover, in series [2], the inhibition at 50 µM came to 46%. For the same compound, in the series with SN40R2 cells, the inhibition at 10 µM worked out at 10%.

Turning to `CC[C@@](O)(c1cc(F)c2c(c1)C(=O)N(Cc1ncc(C#N)cn1)[C@@]2(O[C@H]1CCOC1)c1ccc(Cl)cc1)C1CCN(C)CC1` [Example 557, 2-{[(1R)-1-(4-chlorophenyl)-7-fluoro-5-[(1S)-1-hydroxy-1-(1-methylpiperidin-4-yl)propyl]-3-oxo-1-[(3S)-oxolan-3-yloxy]-2,3-dihydro-1H-isoindol-2-yl]methyl}pyrimidine-5-carbonitrile], the inhibition at 0.001 µM on MDM2-p53 interaction is 81%. For the same compound, the figures for the inhibition at 10 µM (in series [2] (read-out: SN40R2 % inhibition at 10); with SN40R2 cells) were 37% and 6%, respectively.

For orientation: AUC means the area under the concentration-time curve, a measure of exposure. Low readings indicate low exposure, high ones high exposure. Broadly, the Cmax is the peak of the concentration-time curve. Turning to `Nc1ncn([C@H]2CC(OP(=O)(O)OC[C@H]3O[C@@H](n4cnc5c(=O)[nH]c(N)nc54)CC3O)[C@@H](CO)O2)c(=O)n1` (stereo partly shown) [compound 1-1], in series [3], the AUC at 15 day is 592 ng·h/mL and the Cmax at 15 day came out at 181 ng/mL. In addition, in the series “in vivo”, the AUC amounted to 1470 ng·h/mL and the maximum concentration (Cmax) amounted to 1130 ng/mL.

In series [3], `Nc1ncn([C@H]2C[C@H](O)[C@@H](CO)O2)c(=O)n1` [decitabine, 5-aza-2′-deoxycytidine] yielded an AUC at 15 day of 99 ng·h/mL and a peak concentration (Cmax) at 15 day of 28 ng/mL. Moreover, in “in vivo”, the AUC is 340 ng·h/mL and the Cmax is 160 ng/mL.
